Where two headings read alike, the source gives them in different places. Positions of bridges follow the written chain, without caps; N, C: chain ends. No end group written: not given here.
Key:
[1] = tested on: 28 species and 55 strains of Gram-positive cocci and Gram-negative fermentative and non-fermentative rods; design: method as in PMID 12709350; conditions: final bacterial inoculum 10^4 to 10^5/mL; cited from earlier work
bovine neutrophils [2] = assay: Chemotaxis assay, 48-well Boyden chamber; assay type: cell-based, cattle; conditions: peptide 50.0 μg/mL in lower well; 20 min at 37 °C; three independent experiments; ANOVA with Dunnett, P < 0.05
Experimental: (§1) Neutrophils were isolated from cattle using established methods and approved by the University of Saskatchewan’s Committee on Animal Care. For each individual animal, blood was pooled into 50 mL tubes and diluted with an equal volume of PBS then 12.5 mL of the diluted blood was layered over 10 mL of Ficoll Paque PLUS (Sigma-Aldrich, St. Louis, USA) while taking care to preserve the interface between the two liquids. Following centrifugation at 400 g for 30 min at 20 °C with the brake turned off, the lymphocyte layer was discarded along with Ficoll and plasma. The pellet was washed in 20 mL PBS with centrifugation at 500 g with low brake for 10 min. The supernatant was discarded and the pellet was suspended in equal volume of sterile water and gently mixed for 20 s followed by addition of equal volume of 1.8% NaCl to restore tonicity. The mixture was centrifuged at 500 g for 10 min and followed by another washing and centrifugation at 4 °C. The resulting neutrophil pellet was resuspended in PBS. Bovine neutrophils, collected in the above manner had more than 92% purity, and their viability was greater than 95% based on Trypan blue exclusion assay. Therefore, we use the term neutrophils in the manuscript.
We used fMLP ([…]) as the chemoattractant. […] The cells within the filter pores were then counted in five random fields under light microscope at 40×. […]

bovine neutrophils [3] = assay: Migration inhibition assay (neutrophil migration towards fMLP); assay type: cell-based, cattle; conditions: neutrophils with 50.0 μg/mL peptide in upper well; fMLP 114 nM in lower well; 20 min at 37 °C; three independent experiments
Experimental: as §1
Since peptides can be immunomodulatory, migration inhibition was carried out to determine if the peptides inhibit neutrophil migration. […]

M. haemolytica-A1 = assay type: cell-based, Mannheimia haemolytica; conditions: for No. of CFU: final inoculum 5 × 10^5 cfu/mL, one of three experiments
Experimental: (§2) Wild-type HBD3, its analogues, and MccJ25 were tested against M. haemolytica-A1 using optical density method and colony count assay. Briefly, an aliquot (5 µL) from bacteria suspension stored at −80 °C was put in 5 mL BHI broth at 37 °C for 18 h. An aliquot (10 µL) from this overnight culture was added to fresh BHI broth and incubated at 37 °C for a further 5 h to obtain mid-log phase bacteria. The culture was then centrifuged for 10 min at 800 g at 4 °C. The supernatant was discarded and the bacterial pellet was resuspended in cold, sterile sodium phosphate buffer (SPB) and washed again at 800g for 10 min at 4 °C. The pellet was resuspended in 5 mL SPB. To calculate the number of CFU/mL in the 5 h culture, six successive tenfold dilutions were made. From the last dilution 100 µL was plated in duplicate on petri dishes containing BHI agar and incubated for 24 h. After 24 h the colonies were counted in the two petri dishes and then averaged. Total number of colonies was the average number of colonies multiplied by the dilution factor.
All assays were carried out in sterile 96-well polypropylene flat-bottomed plates using a broth microdilution method. Two-fold serial dilutions of peptide were made in SPB, and 50 µL of each concentration of peptide was added to the wells of the assay plate. […] Positive control wells contained 50 µL of the bacteria with 50 µL of 64 µg/mL ampicillin and negative control wells contained 50 µL of SPB and 50 µL bacterial suspension. Sterility control well contained 100 µL BHI broth to test and ensure that broth was not contaminated.
The plates were sealed with aluminum foil and were incubated at 37 °C for 2 h then 50 µL of the contents of the well were pipetted on BHI agar plates and incubated for 24 h. The bactericidal activity was expressed as the MBC which is the concentration at which 99.9% of the colonies are killed and the Lethal dose 50 (LD50) at which 50% or more bacteria are killed. All experiments were run in triplicates.
Peptides HBD3, its analogues and Mccj25 were assessed for Minimum bactericidal concentration (MBC). […] All the peptides have shown intermediate to potent killing activity towards M. haemolytica (Figures 2, 3). […] However, some published studies have taken final inoculum in the range of 10^4–10^5 cfu/mL [28].

M. haemolytica = assay: Inhibition of visible growth (MIC assay, optical density method); assay type: cell-based, Mannheimia haemolytica; conditions: 10 000–25 000 bacteria/well; compared with control wells
Experimental: as §2
All assays were carried out in sterile 96-well polypropylene flat-bottomed plates using a broth microdilution method. Two-fold serial dilutions of peptide were made in SPB, and 50 µL of each concentration of peptide was added to the wells of the assay plate. […]

## GIINTLQKYYCRVRGGRCAVLSCLPKEEQIGKCSTRGRKCCRRKK (disulfide 11-40, 18-33, 23-41 (inferred)) [HBD3, Human β-Defensin 3, reference compound]
[1]
  MBC, three strains out of 55 tested (intermediate susceptibility): 50.0 µg/mL
Bovine neutrophils [2]
  Chemotaxis of bovine neutrophils towards peptide (migrated neutrophils vs PBS): chemotactic
Bovine neutrophils [3]
  Effect of peptide on neutrophil migration towards fMLP: none of the peptides inhibited migration
M. haemolytica-A1; 2 h
  LD50: 6.3 µg/mL
  MBC: 50.0 µg/mL
M. haemolytica-A1; MBC assay, classification of ref 28
  Sensitivity of M. haemolytica to the peptide (class by MBC): intermediately sensitive (as intermediately sensitive if MBC levels were 10–100 μg/mL)
M. haemolytica-A1; peptide 0.8 μg/mL, well row A (duplicate 1)
  No. of CFU: >400 CFU
M. haemolytica-A1; peptide 0.8 μg/mL, well row B (duplicate 2)
  No. of CFU: >400 CFU
M. haemolytica-A1; peptide 1.6 μg/mL, well row A (duplicate 1)
  No. of CFU: >400 CFU
M. haemolytica-A1; peptide 1.6 μg/mL, well row B (duplicate 2)
  No. of CFU: >400 CFU
M. haemolytica-A1; peptide 3.1 μg/mL, well row A (duplicate 1)
  No. of CFU: >400 CFU
M. haemolytica-A1; peptide 3.1 μg/mL, well row B (duplicate 2)
  No. of CFU: >400 CFU
M. haemolytica-A1; peptide 6.3 μg/mL, well row A (duplicate 1)
  No. of CFU: 210 CFU
M. haemolytica-A1; peptide 6.3 μg/mL, well row B (duplicate 2)
  No. of CFU: 390 CFU
M. haemolytica-A1; peptide 12.5 μg/mL, well row A (duplicate 1)
  No. of CFU: 42 CFU
M. haemolytica-A1; peptide 12.5 μg/mL, well row B (duplicate 2)
  No. of CFU: 101 CFU
M. haemolytica-A1; peptide 25.0 μg/mL, well row A (duplicate 1)
  No. of CFU: 31 CFU
M. haemolytica-A1; peptide 25.0 μg/mL, well row B (duplicate 2)
  No. of CFU: 9 CFU
M. haemolytica-A1; peptide 50.0 μg/mL, well row A (duplicate 1)
  No. of CFU: 0 CFU
M. haemolytica-A1; peptide 50.0 μg/mL, well row B (duplicate 2)
  No. of CFU: 0 CFU
M. haemolytica-A1; peptide 100.0 μg/mL, well row A (duplicate 1), 2 h 37 °C, 50 μL plated, 24 h
  No. of CFU: 0 CFU
M. haemolytica-A1; peptide 100.0 μg/mL, well row B (duplicate 2)
  No. of CFU: 0 CFU

## CC1(C)S[C@@H]2[C@H](NC(=O)[C@H](N)c3ccccc3)C(=O)N2[C@H]1C(=O)O [Ampicillin]
M. haemolytica
  Inhibition of visible growth of M. haemolytica: no growth
